Experimental data taken from US12555809B2, “Additives for fluorenone/fluorenol based aqueous redox flow batteries” (Battelle Memorial Institute, priority 2021, dated 2026).

Tests used:
[1] = cited from earlier work; for H—B pKa: conjugate acid of B^-
[2] = PFG NMR diffusion coefficients (1H, 23Na); type: physicochemical; conditions: for D(Na^+): 23Na PFG NMR at 25° C.
Method: Nuclear magnetic resonance spectroscopy: NMR spectra were either collected on a 500 MHz Oxford NMR spectrometer at 25° C. (the system consists of an Oxford AS500 magnet connected to an Agilent Technologies console), or collected on a 400 MHz NMR spectrometer (Bruker 400 MHz Avance III NMR with NanoBay console, equipped with a SampleCase™ autosampler using IconNMR automation. Probe: BBFO 5 mm SmartProbe sensor). Chemical shifts were reported in ppm with the solvent resonance as the internal standard (DMSO, δ=2.50; D2O, δ=4.70; CDCl3, δ=7.26).

[3] = Small-angle X-ray scattering (SAXS) cluster size; type: physicochemical; conditions: for Diameter: SAXS
Excerpt: Small-angle X-ray scattering: Synchrotron SAXS technique is a powerful technique to measure the size of dissolved molecules, clusters, and suspended particles. SAXS resolves the particle size and shape over a wide range of sizes from several Å to hundreds of nm. Considering the small sizes and low electron contrast of β-CD, FL and FLOH relative to solution, there was a focus on collecting data from a scattering vector, q, of 0.05 to 2 Å-1. Small-angle X-ray scattering (SAXS) data was acquired at beamline 12-ID-B of the APS. A constant incident photon energy of 13.3 keV (λ=0.9322 Å) was used to measure samples in transmission through a 2-mm ID silica capillary (Charles Supper SiO2 capillaries, 10 μm wall thickness). Sample-to-detector distance was calibrated using a silver behenate standard. 2D images were recorded using a Pilatus 2M detector (Dectris; pixel size 172×172 μm^2) for five frames at a 1 s exposure time each. Artifacts from static noise were subtracted using detector dark images, which were acquired every ten frames. Solution blanks were acquired identical to the suspension samples and subtracted using a scaling factor of 1. The RAW program from the BioXTAS package was used, as well as SasView and Irena, to integrate the data, average and merge scans, perform background subtractions, and to calculate pair distance distribution functions (PDDF).

[4] = Rotating disk electrode (RDE) study; type: physicochemical; conditions: 27S4CFL (5 mM) in 0.1 M β-CD/1 M NaOH
Method: Rotating disk electrode (RDE) measurements (Feng et al., Science 2021, 372:836) were performed using a three-electrode configuration consisting of a glassy carbon working electrode (3 mm diameter), a carbon rod counter electrode and an Ag/AgCl reference electrode. The electrolytes of 5 mM redox-active materials in 1.0 M NaOH were used. Data were collected using a CHI potentiostat at scan rates of 5 mV/s in the potential range of −1.55V˜−0.5V vs Ag/AgCl. The rotation rates were at 300, 600, 900, 1200, 1500, 1800, 2100 and 2400 rpm. […] The Koutecky-Levich plots at different overpotentials were extrapolated to get the kinetic current ik according to the Koutecky-Levich equation:
[formula] The exchange current i0 can be obtained by fitting ik to the Tafel plot at the overpotential of zero, from which the reaction rate constant (k0) was determined according to Butler-Volmer equation: i0=nFACk0 Flow Battery Tests

[5] = EPR of comproportionation mixture (FLOH + FL); conditions: 0.001 M FLOH and 0.001 M FL 1:1, 0.001 M β-CD, 20 min after mixing
Method: Electron paramagnetic resonance spectroscopy: EPR measurements were performed on a Bruker ELEXSYS E580 spectrometer at 298 K. The electrolyte solution sample was pulled into a glass capillary (VitroTubes™, ID 0.8 mm and OD 1 mm) using a Hamilton syringe connected through nanotight fittings from Valco Instruments Co. Inc. The capillary was sealed using Critoseal™ Leica Microsystems capillary tube sealant on both ends and was further placed inside a 4 mm EPR tube with the open end sealed inside a glove box filled with nitrogen. All samples were prepared inside the glove box immediately before EPR experiments to minimize the influence of air and moisture. The typical settings for the spectra were microwave frequency=9.324 GHz, sweep time=41.94 s, time constant=5.12 ms, power=0.02 mW, field modulation amplitude=0.05 G, and sweep width=24 G for dilute solutions in order to capture the detailed hyperfine structures but the sweep width was increased to 50 G for relatively concentrated solutions to incorporate their broader line widths. Absolute spin concentrations of the samples were determined by calibration curves of the spin standard TEMPO (2,2,6,6-tetramethyl-1-piperidinyloxyl) with concentrations varying from 0.01 mM to 100 mM, and another spin standard 4-Hydroxy-TEMPO with concentrations varying from 0.1 M to 1.0 M.

[6] = pKa of additive / proton acceptor (H—B) and deprotonation of β-CD in alkaline solution; type: physicochemical; conditions: 0.1 M β-CD added to 1 M NaOH
Excerpt: β-(Cyclodextrin)CD was selected as model compound. Not only benefiting from the cavity containing poly-hydroxyl structure, but it also has a pKa at around 13.5, which is similar to the pKa of functionalized fluorenol, rendering a potentially strong H-bonding structure. Based on past studies (Gaidamauskas et al., Carbohydrate Research 2009, 344:250-254) and measurement of β-CD behavior in alkaline solution, this supermolecule experiences two-fold of deprotonation in 1 M NaOH. […] From a battery operation point, β-CD is notable for its redox-inert character and large molecular size, which leaves no concern of crossover and loss of catalyst. From a practical application point, the low-cost and non-toxic merit warrants feasible implementation.

[7] = Battery current response test at controlled voltage; conditions: fully charged electrolyte, 0.9V controlled voltage discharge
Method: The battery of FIG. 13 was constructed similar to above described procedure, except that two consecutive cell stacks were employed (electrolyte flow through the two cells consecutively), one for charging and discharging, one for OCV monitoring. The battery in FIG. 18 was constructed using one cell stack, with additional pump and tubing system circulating ˜3 mL electrolyte through EPR detecting tube at 100 rpm rate. Anolyte was comprised of 12 mL 0.1 M 274FL/1 M NaOH with specified additive at 0.086 M. Catholyte was comprised of 500 mL 0.1 M ferrocyanide/0.05 M ferricyanide/1 M NaOH. Electrolyte was charged until desired SOC reached. Then the discharge current response was measured at controlled voltage of 0.9V. Each measurement was repeated 5 cycles (FIG. 13) and experiments were repeated two times in FIG. 18.

[8] = H-cell oxidation rate measurement (chronocoulometry)
Method: The measurement was conducted with H-cell equipped with Hg/HgO as reference electrode and Glassy carbon electrode as working electrode (0.0707 cm^2). Carbon rod was used as counter electrode. Stir bar was equipped to facilitate mass transfer, so it is not considered as a limiting factor in the measurement of oxidation process. Chronocoulometry method was applied at specified potential for 120 s with IR compensation (CI mode on Gamry) and 1.5 s per data point. Nafion® 212 (soaked in 1 M NaOH at room temperature) was used as separator. Each data point was repeated three times. The electrolyte solution was prepared using the battery charging to specified SOC. The battery was constructed with 8 mL of 0.3 M 274FL/1 eqNaOH/1 M NaOH and 30 mL of 0.3 M potassium ferrocyanide/0.3 M potassium ferricyanide/1 M NaOH. After charged to specified SOC, the anolyte solution was diluted with 1 M NaOH to result a 15 mM active material solution. The catholyte was diluted with 1 M NaOH to result an 8.75 mM potassium ferrocyanide/28.75 mM potassium ferricyanide solution. The solution used for H-cell measurement in each compartment was 5 mL, with addition of specified amount of additive. To prepare deuterated fluorenol, the cell was constructed using NaOD/D2O for both anolyte and catholyte.
Due to well stirred solution and only 120 s measurement with small electrode area, mass transfer and SOC change influence can be considered as neglectable. Thus, a linear relationship was obtained (A condition where neglectable oxidizable material concentration change during testing period). The slope represents an oxidation rate (C/s, average current, unit A) for the solution oxidizable species during that testing period.
A heterogeneous reaction oxidation rate constant (cm/s) at a specified overpotential was calculated based on a pseudo first order reaction model (Hammerich et al., Organic electrochemistry:revised and expanded 2015, CRC Press; Markle et al., Science Advances 2018, 4: eaat5776):
[formula] here “i” unit is A(C/s), A is 0.0707 cm^2. […]

[9] = Solubility measurement (saturated solution concentration by NMR); type: physicochemical; conditions: with less than 0.1 M β-CD added
Method: A general procedure was applied following below steps. First a supernatant was prepared by mixing solute and solvent with heating, stirring, and centrifugation. The resulting cooled mixture was filtered through 0.2 μm PP membrane filter. The saturated solution concentration was determined by NMR. NMR sample was prepared with mixing 100 μL of saturated solution, 50 μL of internal standard solution (1 M sodium methane sulfonate) and 950 μL D2O.

[10] = ratio of diffusion coefficients

SMILES	H—B pKa [1]	D(FLOH or FL) ([2]; 1H PFG NMR at 25° C.)	D(H2O) ([2]; 1H PFG NMR at 25° C.)	D(Na^+) [2]	D(FLOH or FL)/D(H2O) [2, 10]	D(Na^+)/D(H2O) [2, 10]	Diameter [3]	also measured
Oc1ccc(O)cc1	9.7	–	–	–	–	–	–	–
O=C(O)c1cc(S(=O)(=O)O)cc2c1-c1ccc(S(=O)(=O)O)cc1C2O (centres unmarked) [FLOH, 2,7-sulfonate-4-carboxylate fluorenol]	–	2.45 ×10^−10 m^2/s	13.6 ×10^−10 m^2/s	6.72 ×10^−10 m^2/s	0.18	0.49	12.32 ± 1.84 Å Å	D(FLOH - H6) ([2]; 1H PFG NMR at 25° C.): 2.43 ×10^−10 m^2/s
O=C(O)c1cc(S(=O)(=O)O)cc2c1-c1ccc(S(=O)(=O)O)cc1C2=O [27S4CFL, 2,7-sulfonate-4-carboxylate fluorenone]	–	1.92 ×10^−10 m^2/s	12.1 ×10^−10 m^2/s	7.60 ×10^−10 m^2/s	0.16	0.63	16.48 ± 0.21 Å Å	calculated diffusion coefficient [4]: 7.56×10^−6 cm^2/s; calculated kinetic reduction rate constant for the first electron [4]: 0.00351 cm/s
OCC(F)(F)F [CF3CH2O]	11.4-12.4	–	–	–	–	–	–	–
OC[C@H]1O[C@@H]2O[C@H]3[C@H](O)[C@@H](O)[C@@H](O[C@H]4[C@H](O)[C@@H](O)[C@@H](O[C@H]5[C@H](O)[C@@H](O)[C@@H](O[C@H]6[C@H](O)[C@@H](O)[C@@H](O[C@H]7[C@H](O)[C@@H](O)[C@@H](O[C@H]8[C@H](O)[C@@H](O)[C@@H](O[C@H]1[C@H](O)[C@H]2O)O[C@@H]8CO)O[C@@H]7CO)O[C@@H]6CO)O[C@@H]5CO)O[C@@H]4CO)O[C@@H]3CO [β-CD, β-cyclodextrin]	–	–	13.1 ×10^−10 m^2/s	8.12 ×10^−10 m^2/s	–	0.62	11.76 ± 3.94 Å Å	pKa [1]: around 13.5; D(β-CD) ([2]; 1H PFG NMR at 25° C.): 1.57 ×10^−10 m^2/s; D(β-CD)/D(H2O) [2, 10]: 0.12; height of the cup ([3]; SAXS RDFs): ~4 Å; width of the cup ([3]; SAXS RDFs): ~12 Å; reduction of radical concentration estimated from EPR peak intensity [5]: 60%; hydroxide consumption corresponding to pH decrease [6]: 0.184 M; peak current density relative to blank [7]: 1.6 times; increment of fluorenol oxidation ([8]; H-cell, −0.65V vs Hg/HgO): 1.6 times; KIE value ([8]; applied potential of −0.65V vs Hg/HgO): 2.42; deuterated fluorenol oxidation rate enhancement ([8]; deuterated fluorenol): 1.4 times
O=C(O)c1cccc2c1-c1ccc(S(=O)(=O)[O-])cc1C2=O.[K+] [4C7SFL, 4-carboxylate-7-sulfonate fluorenone/fluorenol]	–	–	–	–	–	–	–	solubility ([9]; aqueous with cosolvent or surfactant or cyclodextrin, thermodynamic from solid, read-out: measured solubility): ~1900 mM; solubility increase compared with solubility without β-CD [9]: ~30%; volumetric capacity corresponding to solubility [9]: 101.8 Ah/L
